Test [1] has as its target T1, ornithine decarboxylase from AA8 cells (Cricetulus griseus, UniProt P14019).
T1 sequence (P14019 1-455): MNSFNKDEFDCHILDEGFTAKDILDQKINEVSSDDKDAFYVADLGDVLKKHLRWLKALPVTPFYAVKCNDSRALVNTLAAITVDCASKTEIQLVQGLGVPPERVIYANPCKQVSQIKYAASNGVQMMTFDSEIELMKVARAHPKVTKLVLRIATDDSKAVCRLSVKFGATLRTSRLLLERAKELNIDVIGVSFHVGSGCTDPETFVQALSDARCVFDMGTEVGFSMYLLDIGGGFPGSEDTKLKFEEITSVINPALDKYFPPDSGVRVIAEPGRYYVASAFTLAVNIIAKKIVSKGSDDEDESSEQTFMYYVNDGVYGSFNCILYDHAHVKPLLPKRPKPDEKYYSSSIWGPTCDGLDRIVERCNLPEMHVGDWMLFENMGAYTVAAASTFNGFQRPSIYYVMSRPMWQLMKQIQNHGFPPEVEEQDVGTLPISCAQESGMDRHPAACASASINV
Briefly: biochemical. To be noted: IC50, concentration required to reduce the ornithine decarboxylase by 50%.
Procedure: Monolayer cells grown in the absence and presence of a known cytotoxic agent, were washed twice with 10 mls of phosphate-buffered saline and suspended in a petri dish (0.5 ml/10 cm) in an ice-cold ornithine decarboxylase buffer containinig 50 mM of Tris-Cl, pH=7.3, 0.1 mM ethylene diamine tetraacetic acid, 50 uM pyridoxal 5'-phosphate (Sigma) and 5 mM of dithiothreitol. The cells were lysed under three cycles of freezing in liquid nitrogen and thawing at 37° C. The cell lysates were then centrifuged at 15,000 g for 15 minutes at 4° C., the supernatant liquid was collected and used in the assay for the ornithine decarboxylase activity. The assay was based on the Djurhuss method that utilizes a strong cation-exchange paper (Anal. Biochem. 113:352-5, 1981). […] After incubation for 60 minutes at 37° C. under agitation, the reaction mixture was spotted onto a strip of P81 cellulose phosphate paper and dried. After washing in a solution of 0.1M ammonium hydroxide and drying,liquid scintillation counting was performed. In similar manner, blank values were determined by using 80 ul of ornithine decarboxylase buffer, instead of the cytosolic cell extract.

Test [2] deals with T19 cells. As to the kind of experiment: cells. Format: cell-based, Chinese hamster. As to the method:
(§1) Clonogenic cytotoxic assays were performed with AA8 and T19 cells exposed to various concentrations of colchinine for 6 hours, 18 hours, 48 hours or continuously, and each time the clonal surviving fractions were determined.

Test [3] concerns AA8 cells. As to the kind of experiment: cells. Format: cell-based, Chinese hamster. The following applies: for IC50: Cricetulus griseus, CHO-AA8, read-out: LD50 (clonogenic assay) AA8. Here is the method:
as §1

The test system of test [4] is T19 cells. As to the kind of experiment: ODC (ornithine decarboxylase activity) assay of drug resistance, multidrug resistant T19 cells. It counts as cell-based, Chinese hamster. The following applies: for IC50: Cricetulus griseus, read-out: IC50 (ODC assay) T19; for Resistance (-fold), ODC assay, T19 versus AA8: T19/AA8 ratio of IC50. Here is the method:
(§2) The protein determinations were carried out according to the method of Bradford (Anal.Biochem. 72, 248-54, 1976), using lysozyme, triple crystallization and dialysis, as a standard.
(§3) Monolayers of parental AA8 and multidrug resistant T19 cells grown for 4 days at 37° C., were exposed to various concentrations of the antimitotic agent colchinine, for 6 hours, 18 hours and 48 hours and then the activity of ornithine decarboxylase was determined.
(§4) In the same manner, this assay was tested with various anticancer drugs of various structure and distinct mechanisms of action. The following cytotoxic agents were tested: vinca alkaloids, anthracyclines, epipodophyllotoxins, actinomycin D and antifolates.

Test [5] has as its system AA8 cells. Briefly: ODC (ornithine decarboxylase activity) assay of cellular drug sensitivity, wild type AA8 cells. The following applies: for IC50: Cricetulus griseus, read-out: IC50 (ODC assay) AA8. Format: cell-based, Chinese hamster. As to the method: as §2, §3, §4
The mark [6] stands for this setting: Cricetulus griseus, read-out: LD50 (clonogenic assay) T19.
The mark [7] stands for this setting: incubation time 48 hr, mean of two to four independent experiments.
Where [8] appears, read: CHO-AA8, incubation time 48 hr, mean of two to four independent experiments.
The mark [9] stands for this setting: incubation time 18 hr, mean of two to four independent experiments.
Setting [10] is: CHO-AA8, incubation time 18 hr, mean of two to four independent experiments.

From US5455161A, “Method for the monitoring of multiple anticancer drug resistance” (priority 1992, dated 1995) come the findings set out here.

Numbered stars: 1 amine (or outer) side, 2 acyl side, 3 side chain; on linkers, the order of the positions; unused ones are H or OH. Bridge positions count the residues as written; N and C are the ends. Square brackets hold non-standard residues; d marks the D form. Peptide text beside a SMILES is read from it. I, II: the chains in the order shown. Actinocin(9to1) = Cc1c2oc3c(C)ccc(C(=O)[*:1])c3nc-2c(C(=O)[*:2])c(N)c1=O; NMeV = CN[C@H](C(=O)O)C(C)C; Sar = CNCC(=O)O

`NCCCC(N)(C(=O)O)C(F)F` (racemic) [DMFO, DL-o-difluoromethylornithine]: the IC50 in test [1] (extract of AA8-induced cells (received fresh serum-containing medium), 2x10^7 cells) came out at 5 µM; in test [1] (extract of non-induced AA8 cells (no fresh medium), same number of cells), 1.1 µM.
For the compound `Cc1c2oc3c(C)ccc(C(=O)N[C@@H]4C(=O)N[C@H](C(C)C)C(=O)N5CCC[C@H]5C(=O)N(C)CC(=O)N(C)[C@@H](C(C)C)C(=O)O[C@@H]4C)c3nc-2c(C(=O)N[C@@H]2C(=O)N[C@H](C(C)C)C(=O)N3CCC[C@H]3C(=O)N(C)CC(=O)N(C)[C@@H](C(C)C)C(=O)O[C@@H]2C)c(N)c1=O` [Actinomycin D] (I: T[dV]P[Sar][NMeV] / II: T[dV]P[Sar][NMeV]; ester I:1-I:C, II:1-II:C; linker I:N-II:N via Actinocin(9to1)), the IC50 was 0.0497 µM in the test on T19 cells [2] (setting [6]); 0.0022 µM in the test on AA8 cells [3]; 0.042 µM in the test with T19 cells [4] (18 h); 0.0037 µM in the test with AA8 cells [5] (CHO-AA8, 18 h). In addition, the “Resistance (-fold), clonogenic assay, T19 versus AA8” value (from here on “Resistance (-fold), clonogenic assay”) in the test with T19 cells [2] (ratio of LD50 T19/AA8) was 22.6 -fold. Also, the “Resistance (-fold), ODC assay, T19 versus AA8” value (from here on “Resistance (-fold), ODC assay”) with T19 cells [4] (incubation time 18 hr) was 11.3 -fold.
With `COc1cc2c(c(OC)c1OC)-c1ccc(OC)c(=O)cc1[C@@H](NC(C)=O)CC2` [Colchicine], in the test on T19 cells [2] (read-out: LD50 (50% lethal dose), clonal survival, t19 cells), the IC50 was determined as 6.7 µM. The “LD50 (clonogenic assay) AA8” value in the test on AA8 cells [3] came out at 100 nM. For the same compound, the “ornithine decarboxylase activity with increased drug concentrations” value in the test with AA8 cells [5] (exposure 6, 18 and 48 hours) is listed as “dose-dependent decrease”.
In the case of `COc1cccc2c1C(=O)c1c(O)c3c(c(O)c1C2=O)C[C@@](O)(C(C)=O)C[C@@H]3O[C@H]1C[C@H](N)[C@H](O)[C@H](C)O1` [Daunorubicin], the IC50 in the test with T19 cells [2] (setting [6]) turned out to be 0.726 µM; in the test with AA8 cells [3], 0.0086 µM; in the test on T19 cells [4] (setting [7]), 1.86 µM; in the test on AA8 cells [5] (setting [8]) it was 0.0296 µM. Further, the “Resistance (-fold), clonogenic assay” value with T19 cells [2] (hamster, t19 vs aa8 cells) is recorded as 84.1 -fold. Further, the “Resistance (-fold), ODC assay” value with T19 cells [4] (incubation time 48 hr) is recorded as 63.0 -fold.
On to `COc1cccc2c1C(=O)c1c(O)c3c(c(O)c1C2=O)C[C@@](O)(C(=O)CO)C[C@@H]3O[C@H]1C[C@H](N)[C@H](O)[C@H](C)O1` [Doxorubicin], for which the IC50 in the test with T19 cells [2] (setting [6]) came out at 8.45 µM; with AA8 cells [3], 0.04 µM; in the test with T19 cells [4] (setting [7]) it was 3.58 µM; with AA8 cells [5] (setting [8]), 0.055 µM. Further, the “Resistance (-fold), ODC assay” value in the test on T19 cells [4] (incubation time 48 hr) was 65.0 -fold.
As to `COc1cc([C@@H]2c3cc4c(cc3[C@@H](O[C@@H]3O[C@@H]5CO[C@@H](C)O[C@H]5[C@H](O)[C@H]3O)[C@H]3COC(=O)[C@H]23)OCO4)cc(OC)c1O` [Etoposide], the IC50 in the test with T19 cells [2] (setting [6]) came to 4.2 µM; with AA8 cells [3] it was 0.265 µM; with T19 cells [4] (48 h) it was 4.18 µM; in the test on AA8 cells [5] (CHO-AA8, 48 h) it was 0.366 µM. Also, in the test with T19 cells [2] (ratio of LD50 T19/AA8), the “Resistance (-fold), clonogenic assay” value is listed as 15.9 -fold. Also, the “Resistance (-fold), ODC assay” value in the test on T19 cells [4] (incubation time 48 hr) is listed as 11.4 -fold.
For the compound `CN(Cc1cnc2nc(N)nc(N)c2n1)c1ccc(C(=O)N[C@@H](CCC(=O)O)C(=O)O)cc1` [Methotrexate], the IC50 with T19 cells [2] (setting [6]) is 0.0306 µM; with AA8 cells [3], 0.0251 µM; in the test on T19 cells [4] (setting [7]) it was 0.0638 µM; with AA8 cells [5] (setting [8]), 0.0565 µM. The “Resistance (-fold), clonogenic assay” value in the test on T19 cells [2] (hamster, t19 vs aa8 cells) is on record as 1.2 -fold. In addition, the “Resistance (-fold), ODC assay” value in the test on T19 cells [4] (incubation time 48 hr) is 1.1 -fold.
Take `Cc1nc(N)nc(N)c1-c1ccc(Cl)c(Cl)c1` [Metoprine]: the IC50 amounted to 0.0337 µM with T19 cells [2] (setting [6]), 0.0126 µM in the test on AA8 cells [3], 0.0532 µM in the test on T19 cells [4] (setting [7]) and 0.0138 µM with AA8 cells [5] (setting [8]). Besides, the “Resistance (-fold), clonogenic assay” value with T19 cells [2] (hamster, t19 vs aa8 cells) is listed as 2.7 -fold. Also, the “Resistance (-fold), ODC assay” value in the test on T19 cells [4] (incubation time 48 hr) was 3.9 -fold.
Turning to `COc1ccc(OC)c(Cc2cnc3nc(N)nc(N)c3c2C)c1` [Piritrexim], the IC50 with T19 cells [2] (setting [6]) was 0.113 µM; in the test with AA8 cells [3] it was 0.0046 µM; in the test with T19 cells [4] (setting [7]), 0.127 µM; with AA8 cells [5] (setting [8]) it was 0.0058 µM. Moreover, the “Resistance (-fold), clonogenic assay” value in the test on T19 cells [2] (ratio of LD50 T19/AA8) was 24.5 -fold. Further, the “Resistance (-fold), ODC assay” value with T19 cells [4] (incubation time 48 hr) was 22.0 -fold.
Take `COc1ccc(C[C@H](N)C(=O)N[C@H]2[C@@H](O)[C@H](n3cnc4c(N(C)C)ncnc43)O[C@@H]2CO)cc1` [Puromycin]: the IC50 in the test with T19 cells [2] (setting [6]) was determined as 0.116 µM; in the test with AA8 cells [3] it was 0.0045 µM; in the test on T19 cells [4] (setting [7]) it was 0.315 µM; with AA8 cells [5] (setting [8]) it was 0.0105 µM. Further, the “Resistance (-fold), clonogenic assay” value with T19 cells [2] (hamster, t19 vs aa8 cells) is 25.8 -fold. The “Resistance (-fold), ODC assay” value with T19 cells [4] (incubation time 48 hr) is 30.0 -fold.
`COc1cc(NCc2ccc3nc(N)nc(N)c3c2C)cc(OC)c1OC` [Trimetrexate]: the IC50 was determined as 0.0686 µM in the test with T19 cells [2] (setting [6]), 0.0024 µM in the test on AA8 cells [3], 0.0724 µM with T19 cells [4] (setting [7]) and 0.0029 µM in the test with AA8 cells [5] (setting [8]). The “Resistance (-fold), clonogenic assay” value in the test with T19 cells [2] (hamster, t19 vs aa8 cells) is listed as 28.6 -fold. Also, in the test on T19 cells [4] (incubation time 48 hr), the “Resistance (-fold), ODC assay” value is given as 25.0 -fold.
Take `CC[C@]1(O)C[C@@H]2CN(CCc3c([nH]c4ccccc34)[C@@](C(=O)OC)(c3cc4c(cc3OC)N(C)[C@H]3[C@@](O)(C(=O)OC)[C@H](OC(C)=O)[C@]5(CC)C=CCN6CC[C@]43[C@@H]65)C2)C1` [Vinblastine]: the IC50 in the test with T19 cells [2] (setting [6]) was 0.08 µM; with AA8 cells [3], 0.003 µM; in the test on T19 cells [4] (setting [9]) it was 0.275 µM; in the test with AA8 cells [5] (setting [10]) it was 0.0159 µM. The “Resistance (-fold), clonogenic assay” value in the test on T19 cells [2] (hamster, t19 vs aa8 cells) was 26.7 -fold. In addition, in the test on T19 cells [4] (incubation time 18 hr), the “Resistance (-fold), ODC assay” value was 17.3 -fold.
For the compound `CC[C@]1(O)C[C@H]2CN(CCc3c([nH]c4ccccc34)[C@@](C(=O)OC)(c3cc4c(cc3OC)N(C=O)[C@H]3[C@@](O)(C(=O)OC)[C@H](OC(C)=O)[C@]5(CC)C=CCN6CC[C@]43[C@@H]65)C2)C1` [Vincristine], the IC50 came out at 0.229 µM with T19 cells [2] (setting [6]), 0.0082 µM with AA8 cells [3], 1.53 µM in the test with T19 cells [4] (setting [9]) and 0.0796 µM in the test with AA8 cells [5] (setting [10]). In the test on T19 cells [2] (hamster, t19 vs aa8 cells), the “Resistance (-fold), clonogenic assay” value is given as 28.1 -fold. In addition, the “Resistance (-fold), ODC assay” value with T19 cells [4] (incubation time 18 hr) is on record as 19.2 -fold.
